Calls of active or inactive are those of the source. The calls are words filed in the database; no cut-off is given here.
How the values were obtained:
Rattus norvegicus [1] = assay: Compound was tested for its CNS activity in vivo in SNx rats with 6-hydroxydopamine induced lesions after ip administration; format: functional, Central nervous system
Rattus norvegicus [2] = assay: Compound was tested for its CNS activity in vivo in SNx rats with 6-hydroxydopamine induced lesions after ic administration; format: functional, Central nervous system
Rattus norvegicus [3] = species: Rattus norvegicus; assay: In vitro dose stimulating D-1 adenylate cyclase in rat caudate nuclei at 10 uM; format: functional
Rattus norvegicus [4] = species: Rattus norvegicus; assay: In vitro inhibition of dopamine stimulated production of [14C]-cAMP from [14C]-ATP in homogenates of rat caudate; format: functional
Canis familiaris [5] = assay: Renal vasodilator activity in anesthetized dogs; no significant activity at 1000 ug/kg/stat; format: functional, organism-based; conditions: Canis lupus familiaris
Canis familiaris [6] = assay: Renal vasodilator activity was determined in anesthetized dogs; format: functional; conditions: Canis lupus familiaris
Canis familiaris [7] = species: Canis familiaris; assay: Maximum percent decrease in renal vascular resistance.; format: functional, Canis lupus familiaris
Canis familiaris [8] = assay: cardiovascular activity was determined in anesthetized dogs.(Heart rate ); format: functional; conditions: Canis lupus familiaris
Canis familiaris [9] = species: Canis familiaris; assay: Effective dose against Iliac vascular resistance (IVR); format: functional; conditions: Canis lupus familiaris
Canis familiaris [10] = assay: cardiovascular activity was determined in anesthetized dogs.(Mean arterial blood pressure); format: functional; conditions: Canis lupus familiaris
Rattus norvegicus [11] = species: Rattus norvegicus; assay: In vitro dose stimulating D-1 adenylate cyclase in rat caudate nuclei; format: functional, organism-based
Rattus norvegicus [12] = species: Rattus norvegicus; assay: (§1) In vitro dose stimulating D-1 adenylate cyclase in rat caudate nuclei; No significant activity at 10 uM; format: functional
Rattus norvegicus [13] = species: Rattus norvegicus; assay: In vitro inhibition of dopamine stimulated production of [14C]cAMP from [14C]-ATP in homogenates of rat caudate; No significant activity at 10 uM; format: functional
Rattus norvegicus [14] = species: Rattus norvegicus; assay: In vitro inhibition of dopamine stimulated production of [14C]cAMP from [14C]-ATP in homogenates of rat caudate at the concentration of 10 uM; format: functional
Canis familiaris [15] = assay: Cardiovascular activity was determined in anesthetized dogs.(Heart rate ); format: functional; conditions: Canis lupus familiaris
Rattus norvegicus [16] = species: Rattus norvegicus; assay: In vitro inhibition of dopamine stimulated production of [14C]cAMP from [14C]-ATP in homogenates of rat caudate at the concentration of 1 uM; format: functional
Canis familiaris [17] = assay: Cardiovascular activity was determined in anesthetized dogs.(Mean arterial blood pressure); format: functional; conditions: Canis lupus familiaris, Artery
Rattus norvegicus [18] = assay: Compound was tested for its CNS activity in vivo by determining drug-induced rotation in rats with 6-hydroxydopamine induced lesions of the SNx rats after ip administration measured as dose-turns; 10-no significant activity; format: functional, organism-based; conditions: Central nervous system
Canis familiaris [19] = assay: Renal vasodilator activity in anesthetized dogs; I= no significant activity at 300 ug/kg/min; format: functional, organism-based; conditions: Canis lupus familiaris
Rattus norvegicus [20] = species: Rattus norvegicus; assay: as §1; format: functional; remark: listed apart in the source
Rattus norvegicus [21] = assay: Compound was tested for its CNS activity in vivo in SNx rats with 6-hydroxydopamine induced lesions after ip administration measured as dose-turns; 10-No significant activity; format: functional, organism-based; conditions: Central nervous system
Rattus norvegicus [22] = species: Rattus norvegicus; assay: In vitro dose stimulating D-1 adenylate cyclase in rat caudate nuclei as % dopamine response at 10 uM; format: functional

Compound | EC50 (Rattus norvegicus [11]) [µM] | RD500 (Rattus norvegicus [1]) | ED15 (Canis familiaris [6]) [mg/kg] | Decrease (Canis familiaris [7]) [%] | ED20 (Canis familiaris [8]) [mg/kg] | ED30 (Canis familiaris [9]) [mg/kg] | ED20 (Canis familiaris [10]) [mg/kg] | also measured
CN1CCc2cc(O)c(O)cc2C(c2ccccc2)C1.Cl (stereo unspecified) | – | 0.1 mg/kg | – | – | – | – | – | RD500 (Rattus norvegicus [2]): 0.06 ug rat-1; Stimulation (Rattus norvegicus [3]): 20%; IC50 (Rattus norvegicus [4]): 0.63 µM; Activity (Canis familiaris [5]): inactive
Br.Oc1cc2c(c(Cl)c1O)CCNCC2c1ccccc1 (stereo unspecified) | – | 0.3 mg/kg | 0.0035 | 39 | 0.378 | 2.92 | 6.07 | RD500 (Rattus norvegicus [2]): 0.22 ug rat-1
Br.Cc1c(O)c(O)cc2c1C(c1ccc(O)cc1)CNCC2 (stereo unspecified) | – | – | – | – | – | – | – | EC50 (Rattus norvegicus [12]): Not Active; inhibition (Rattus norvegicus [13]): inactive
Br.Oc1cc2c(c(F)c1O)CCNCC2c1ccccc1 (stereo unspecified) | 0.04 | – | 0.009 | 36 | – | 54 | – | inhibition (Rattus norvegicus [14]): 17%; ED20 (Canis familiaris [15]): 54 mg/kg; inhibition (Rattus norvegicus [16]): 31%; ED20 (Canis familiaris [17]): 54 mg/kg
Br.Oc1ccc(C2CNCCc3cc(O)c(O)c(Cl)c32)cc1 (stereo unspecified) | – | – | – | – | – | – | – | EC50 (Rattus norvegicus [12]): Not Active; inhibition (Rattus norvegicus [13]): inactive
Br.CN1CCc2c(cc(O)c(O)c2Br)C(c2ccccc2)C1 (stereo unspecified) | – | 0.015 mg/kg | – | – | – | – | – | Stimulation (Rattus norvegicus [3]): 30%; IC50 (Rattus norvegicus [4]): 0.32 µM
Oc1cc2c(cc1O)C(c1ccccc1)CNCC2 (stereo unspecified) [SKF-38393] | – | 0.7 mg/kg | 0.035 | 18 | 1.05 | 0.735 | 1.72 | RD500 (Rattus norvegicus [2]): 0.18 ug rat-1
Br.CN1CCc2c(cc(O)c(O)c2F)C(c2ccc(O)cc2)C1 (stereo unspecified) | – | – | – | – | – | – | – | inhibition (Rattus norvegicus [14]): 55%; Stimulation (Rattus norvegicus [3]): 36%
Br.Cc1c(O)c(O)cc2c1CCN(C)CC2c1ccccc1 (stereo unspecified) | – | 0.05 mg/kg | – | – | – | – | – | Stimulation (Rattus norvegicus [3]): 20%; Activity (Canis familiaris [19]): inactive; IC50 (Rattus norvegicus [4]): 0.44 µM
Cc1c(O)c(O)c(C)c2c1CCNCC2c1ccc(O)cc1 (stereo unspecified) | – | – | – | – | – | – | – | Stimulation (Rattus norvegicus [20]): inactive; inhibition (Rattus norvegicus [13]): inactive
Cc1c(O)c(O)c(Cl)c2c1C(c1ccc(O)cc1)CNCC2 (stereo unspecified) | – | – | – | – | – | – | – | Stimulation (Rattus norvegicus [20]): inactive; inhibition (Rattus norvegicus [13]): inactive
CN1CCc2c(cc(O)c(O)c2Cl)C(c2ccccc2)C1.Cl (stereo unspecified) | – | 0.03 mg/kg | – | – | – | – | – | Stimulation (Rattus norvegicus [3]): 30%; IC50 (Rattus norvegicus [4]): 0.6 µM
Br.Oc1ccc(C2CNCCc3c(F)c(O)c(O)c(F)c32)cc1 (stereo unspecified) | – | – | – | – | – | – | – | EC50 (Rattus norvegicus [12]): Not Active; inhibition (Rattus norvegicus [13]): inactive
Cc1c(O)c(O)c(Cl)c2c1CCNCC2c1ccc(O)cc1.Cl (stereo unspecified) | – | – | 0.03 | 42 | 6.09 | 6.09 | 6.09 | Stimulation (Rattus norvegicus [20]): inactive; inhibition (Rattus norvegicus [14]): 29%
Cl.Oc1c(O)c(Cl)c2c(c1Cl)CCNCC2c1ccccc1 (stereo unspecified) | 1.25 | – | 0.01 | 59 | 6.08 | 6.08 | 6.08 | inhibition (Rattus norvegicus [13]): inactive
Oc1ccc(C2CNCCc3c2cc(O)c(O)c3C(F)(F)F)cc1 (stereo unspecified) | – | – | – | – | – | – | – | RD500 (Rattus norvegicus [18]): inactive
Br.Cc1c(O)c(O)cc2c1CCNCC2c1ccccc1 (stereo unspecified) | 0.1 | 1.28 mg/kg | – | – | – | – | – | –
NCCc1ccc(O)c(O)c1 [DOPAMINE] | – | – | 0.0035 | 43 | 0.378 | 0.151 | – | RD500 (Rattus norvegicus [2]): 0.1 ug rat-1; ED20 (Canis familiaris [17]): 0.378 mg/kg
CN1CCc2c(cc(O)c(O)c2Cl)C(c2ccc(O)cc2)C1 (stereo unspecified) | 22 | – | – | – | – | – | – | IC50 (Rattus norvegicus [4]): 1.4 µM
Br.Oc1cccc(C2CNCCc3c2cc(O)c(O)c3Cl)c1 (stereo unspecified) | – | – | 0.00035 | 49 | 0.36 | 0.0119 | 2.12 | RD500 (Rattus norvegicus [18]): inactive
CS(=O)(=O)O.Cc1c(O)c(O)cc2c1CCNCC2c1ccc(O)cc1 (stereo unspecified) | – | – | 0.0028 | 41 | 6.06 | 6.06 | 6.06 | inhibition (Rattus norvegicus [14]): 50%; Stimulation (Rattus norvegicus [3]): 30%
Br.Oc1ccc(C2CNCCc3c2cc(O)c(O)c3I)cc1 (stereo unspecified) | – | – | 0.0042 | 41 | 6.06 | 6.06 | 6.06 | inhibition (Rattus norvegicus [14]): 55%; Stimulation (Rattus norvegicus [22]): 36%

Now from value to molecule, other results behind:

EC50 (Rattus norvegicus [11]) [µM] | Compound | RD500 (Rattus norvegicus [1]) | ED15 (Canis familiaris [6]) [mg/kg] | Decrease (Canis familiaris [7]) [%] | ED20 (Canis familiaris [8]) [mg/kg] | ED30 (Canis familiaris [9]) [mg/kg] | ED20 (Canis familiaris [10]) [mg/kg] | also measured
0.1 | Br.Oc1cc2c(c(Br)c1O)CCNCC2c1ccccc1 (stereo unspecified) | 0.34 mg/kg | 0.009 | 42 | 6.08 | 6.08 | 6.08 | –
0.048 | CS(=O)(=O)O.Oc1ccc(C2CNCCc3c2cc(O)c(O)c3Cl)cc1 (stereo unspecified) [FENOLDOPAM MESYLATE] | 0.5 ug rat-1 | 0.0003 | 59 | 1.82 | 1.82 | 1.82 | RD500 (Rattus norvegicus [18]): inactive
0.2 | Oc1ccc(C2CNCCc3cc(O)c(O)cc32)cc1 (stereo unspecified) | – | – | – | – | – | – | RD500 (Rattus norvegicus [21]): inactive
2.6 | Cl.Oc1ccc(C2CNCCc3c(Cl)c(O)c(O)c(Cl)c32)cc1 (stereo unspecified) | – | 0.62 | 41 | 6.2 | 6.2 | 6.2 | RD500 (Rattus norvegicus [18]): inactive
0.2 | Br.Oc1ccc(C2CNCCc3c2cc(O)c(O)c3F)cc1 (stereo unspecified) | – | 0.00083 | 28 | 0.00581 | 6.06 | 6.06 | –
0.15 | Br.Oc1ccc(C2CNCCc3c2cc(O)c(O)c3Br)cc1 (stereo unspecified) | – | 0.005 | 56 | 30.4 | 0.07 | 30.4 | RD500 (Rattus norvegicus [18]): inactive
